Patent US8772031B2, “Composition for reprogramming somatic cells to generate induced pluripotent stem cells, comprising Oct4 in combination with Bmi1 or its upstream regulator, and method for generating induced pluripotent stem cells using the same” (Korea University Research and Business Foundation, priority 2009, dated 2014)

Legend:
Format in all cases: cell-based
[1] = tested on: mouse embryonic fibroblasts; assay: Generation of iPS cells by retroviral Oct4 introduction during treatment with Shh or its analog, then embryonic stem cell culture conditions; conditions: Oct4 retrovirus three times at 16 hr intervals, treatment for 72 hrs, reprogramming process for 10-14 days
[2] = tested on: adult mouse embryonic fibroblasts; assay: Establishment of iPS cells (OO-iPS-TTF #1, 2) by Oct4 introduction during treatment with oxysterol; conditions: oxysterol 0.1 μM and 0.5 μM with Oct4 introduction
Description: The reprogramming method established with mouse embryonic fibroblasts was applied to adult mouse embryonic fibroblasts. […] 00-iPS-TTF #1 and 2 were positively stained with AP and found to express SSEA1, Oct4, Sox2, and Nanog as measured by immunochemical staining assays (FIG. 19A).

[3] = tested on: mouse embryonic fibroblasts; assay: Reprogramming of treated fibroblasts into neural stem cell-like cells (morphology, AP staining, immunochemistry); conditions: neural stem cell-culturing conditions, immunochemistry for SSEA1, Nestin, Sox2
Protocol: (§1) The fibroblasts prepared in Example 1 were examined for Bmi1 expression when they were treated with Shh or an analog thereof, such as oxysterol or purmorphamine. FIGS. 9A, 14A and 22A are RT-PCR results showing the effect of Shh (Sonic hedgehog), known as an upstream regulator of Bmi1, or its analogs on the expression of genes downstream thereof.
The induced neural stem cell-like cells were positively analyzed by AP staining and immunochemistry for SSEA1, Nestin and Sox2 (FIGS. 9C, 14C and 22C).

[4] = tested on: Bmi1 expression in mouse embryonic fibroblasts; assay: Bmi1 expression by treatment with Shh or Shh analog (RT-PCR of downstream genes) under neural stem cell-culturing conditions; conditions: for expression of Gli1 and Bmi1 (RT-PCR) / expression of the Bmi1 target genes p16^Ink4a and p19^Arf (RT-PCR): DMEM/F12+B27+N2+bFGF+EGF; for Sox2 expression level: culture condition for neural stem cells
Protocol: Mouse embryonic fibroblasts were employed to generate embryonic stem cell-like cells. Embryos were taken from CF1 strain mice on embryonic day 13.5. Cells were cultured in DMEM (high glucose, w/o sodium pyruvate) supplemented with 10% FBS (Fetal bovine serum), 0.1 mM non-essential amino acid, 1% penicillin/streptomycin and 0.1 mM β-mercaptoethanol in tissue culture flasks, after which fibroblasts at the 3rd passage were seeded at a density of 2×10^5 cells/well into 6-well plates.
as §1

[5] = 0.1 μM and 0.5 μM of hydroxycholesterol
[6] = 0.5 μM or 1 μM of purmorphamine

SMILES | appearance of ES cell-like colonies [1] | derivation of embryonic stem cell-like cells from adult fibroblasts [2] | morphology and neural stem cell markers of the treated cells [3] | expression of Gli1 and Bmi1 (RT-PCR) [4, 5] | expression of the Bmi1 target genes p16^Ink4a and p19^Arf (RT-PCR) [4, 5] | Sox2 expression level [4] | expression of Gli1 and Bmi1 (RT-PCR) [4, 6] | expression of the Bmi1 target genes p16^Ink4a and p19^Arf (RT-PCR) [4, 6]
C[C@H](CCCC(C)(C)O)[C@H]1CC[C@H]2[C@@H]3CC=C4C[C@@H](O)CC[C@]4(C)[C@H]3CC[C@]12C [hydroxycholesterol, 25-hydroxycholesterol] | colonies appeared with the same morphology as ES cells | allowed the derivation of embryonic stem cell-like cells | morphology similar to that of neural stem cells and express nestin and sox2 | upregulation | downregulation | increase | – | –
c1ccc2c(Oc3nc(Nc4ccc(N5CCOCC5)cc4)c4ncn(C5CCCCC5)c4n3)cccc2c1 [purmorphamine, 2-(1-Naphthoxy)-6-(4-morpholinoanilino)-9-cyclohexylpurine] | colonies appeared with the same morphology as ES cells | – | morphology similar to that of neural stem cells and express nestin and sox2 | – | – | increase | upregulation | downregulation
